In US20020077350A1 (Ashni Naturaceuticals, Inc., priority 2000, published 2002):
Entries after “also recorded” stand apart in the source; their conditions may differ.

Tests used:
COX-2 = format: cell-based, human; conditions: Jurkat cells, with and without arachidonic acid or arachidonic acid not specified
Description: COX-2 is inducible in the Jurkat cell by PMA.
Cell plating: The Jurkat cells are propagated in suspension according to the instructions of the supplier. For experimentation, cells are seeded from a log-phase culture at a density of 1×10^5 cells per mL in 100 mm plates, 20 mL per plate, 3 plates per treatment. Serum concentration in the test medium is maintained at 0.5%.
Complete transfers are accomplished in 25-30 minutes at 500 mA. Membranes used for blotting are blocked by incubating in TBS (Tris buffered saline, 50 mM tris, 150 mM NaCl, pH 7.5) containing 5% nonfat dry milk for 30 minutes at room temperature. COX-2 protein is visualized by incubation of the blots with the anti-COX-2 antibody in TBST (0.5% Tween 20 in TBS) for two hours and then a second incubation at room temperature with alkaline phosphatase-conjugated secondary antibody diluted 1:1000 in TBST for two hours. The enzymatic reaction is developed for 15 minutes. The molecular weight of COX-2 is estimated by adding a molecular weight standard to reference lanes and staining the membrane filters with amido black 10B.
Blots are translated into TIFF-formatted files with a Microtech 600GS scanner and quantified using Scan Analysis (BIOSOFT, Cambridge UK). Summary scans are then printed and peak heights are measured directly from the figure. One density unit (Du) is defined as one mm of the resulting peak height.
Appropriate controls receive solvent only. […] Twenty-four hours after treatment, the cells are harvested, lysed and western blotting is done for the determination of COX-2 protein expression.

[1] = gastrointestinal disturbance, nausea and vomiting, hypotension, edema; cited from earlier work

Structure (SMILES) | inhibition of COX-2 enzyme protein expression (COX-2) | patients showing some type of side effects [1]
C[C@H]1[C@H](C)CC[C@]2(C(=O)O)CC[C@]3(C)C(=CC[C@@H]4[C@@]5(C)CC[C@H](O)C(C)(C)[C@@H]5CC[C@]43C)[C@H]12 [Ursolic acid] | does not inhibit | –
CC(C)[C@]12O[C@H]1[C@@H]1O[C@]13[C@]1(O[C@H]1C[C@H]1C4=C(CC[C@@]13C)C(=O)OC4)[C@@H]2O [Triptolide] | – | Approximately 28%
CC1(C)CC[C@]2(C(=O)O)CC[C@]3(C)C(=CC[C@@H]4[C@@]5(C)CC[C@H](O)C(C)(C)[C@@H]5CC[C@]43C)[C@@H]2C1 [Oleanolic acid] | does not inhibit | –
C=C1CC[C@@H]2[C@](C)(CO)[C@H](O)CC[C@@]2(C)[C@@H]1C/C=C1/C(=O)OC[C@H]1O [Andrographolide] | does not inhibit; also recorded: little effect | –
